# Measured values published in US20250171438A1 (Agios Pharmaceuticals, Inc., priority 2022, published 2025).
# Target: T1, human PAH with the R408W mutation (Homo sapiens, UniProt P00439, R408W)
# T1 construct: expressed in transfected cells
# T1 sequence (P00439 1-452 R408W): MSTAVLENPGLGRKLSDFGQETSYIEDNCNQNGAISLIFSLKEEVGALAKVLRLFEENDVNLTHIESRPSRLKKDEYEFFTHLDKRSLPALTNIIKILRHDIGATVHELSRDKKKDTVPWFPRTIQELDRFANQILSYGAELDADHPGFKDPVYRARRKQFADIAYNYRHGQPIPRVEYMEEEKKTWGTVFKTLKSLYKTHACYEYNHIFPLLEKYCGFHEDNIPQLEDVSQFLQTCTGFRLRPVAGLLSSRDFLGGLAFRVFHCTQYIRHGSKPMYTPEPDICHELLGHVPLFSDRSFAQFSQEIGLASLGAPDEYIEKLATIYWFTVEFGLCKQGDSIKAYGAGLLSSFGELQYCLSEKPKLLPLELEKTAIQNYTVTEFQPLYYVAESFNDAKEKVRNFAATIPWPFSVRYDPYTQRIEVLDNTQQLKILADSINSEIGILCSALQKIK
# Experiment: Cell Based Phenylalanine Flux Assay
# Design: scale not given here
# Conditions: A375 cells expressing human R408W PAH; 24 hrs compound incubation; 13C-Tyrosine by LC-MS; average where tested multiple times; read-out: AC50
row,SMILES,AC50 [nM]
1,"O=C(c1cnn2ccc(Br)cc12)N1CCc2[nH]cnc2[C@@H]1c1nc2cc(F)ccc2s1 [Example 1282, (R)-(5-bromopyrazolo [1,5-a]pyridin-3-yl)(4-(5-fluorobenzo[d]thiazol-2-yl)-6,7-dihydro-1H-imidazo[4,5-c]pyridin-5(4H)-yl)methanone]",1000 to 5000
2,"O=C(c1scnc1C(F)(F)F)N1CCc2[nH]cnc2[C@@H]1c1nc2ccccc2s1 [Example 1342, (R)-(4-(benzo[d]thiazol-2-yl)-6,7-dihydro-1H-imidazo[4,5-c]pyridin-5(4H)-yl)(4-(trifluoromethyl)thiazol-5-yl)methanone]",< 500
3,"Cc1nn2ccccc2c1C(=O)N1CCc2[nH]cnc2[C@@H]1c1nc2ccccc2s1 [Example 1166, (R)-(4-(benzo[d]thiazol-2-yl)-6,7-dihydro-1H-imidazo[4,5-c]pyridin-5(4H)-yl)(2-methylpyrazolo[1,5-a]pyridin-3-yl)methanone]",500 to 1000
4,COCCc1ccc2c(C(=O)N3CCc4[nH]cnc4[C@H]3c3nc4ccccc4s3)cnn2c1 [Example 1451],< 500
5,"O=C(c1nnc(-c2ccc(F)c(F)c2)o1)N1CCc2[nH]cnc2[C@H]1c1nc2c(F)cccc2s1 [Example 1878, (S)-(5-(3,4-difluorophenyl)-1,3,4-oxadiazol-2-yl)(4-(4-fluorobenzo[d]thiazol-2-yl)-6,7-dihydro-1H-imidazo[4,5-c]pyridin-5(4H)-yl)methanone]",< 500
6,"O=C(c1nnc(N2CCOCC2)o1)N1CCc2[nH]cnc2[C@@H]1c1nc2ccccc2s1 [Example 1586, (R)-(4-(benzo[d]thiazol-2-yl)-6,7-dihydro-1H-imidazo[4,5-c]pyridin-5(4H)-yl)(5-morpholino-1,3,4-oxadiazol-2-yl)methanone]",1000 to 5000
7,"O=C(CCC1CC1)N1CCc2[nH]cnc2[C@@H]1c1nc2cc(F)ccc2s1 [Example 1076, (R)-3-cyclopropyl-1-(4-(5-fluorobenzo[d]thiazol-2-yl)-6,7-dihydro-1H-imidazo[4,5-c]pyridin-5(4H)-yl)propan-1-one]",1000 to 5000
8,"O=C(CCc1nccs1)N1CCc2[nH]cnc2[C@@H]1c1nc2ccccc2[nH]1 [Example 901, (R)-1-(4-(1H-benzo[d]imidazol-2-yl)-6,7-dihydro-1H-imidazo[4,5-c]pyridin-5(4H)-yl)-3-(thiazol-2-yl)propan-1-one]",> 5000
9,"O=C(c1cnn2ccccc12)N1CCc2[nH]cnc2[C@H]1c1nc2cccc(F)c2s1 [Example 1109, (S)-(4-(7-fluorobenzo[d]thiazol-2-yl)-6,7-dihydro-1H-imidazo[4,5-c]pyridin-5(4H)-yl)(pyrazolo[1,5-a]pyridin-3-yl)methanone]",500 to 1000
10,"O=C(c1cnn2ccccc12)N1CCc2[nH]cnc2[C@H]1c1nc2ccc(Cl)cc2[nH]1 [Example 936, (S)-(4-(6-chloro-1H-benzo[d]imidazol-2-yl)-6,7-dihydro-1H-imidazo[4,5-c]pyridin-5(4H)-yl)(pyrazolo[1,5-a]pyridin-3-yl)methanone]",1000 to 5000
11,"O=C(N1CCC1)N1CCc2[nH]cnc2[C@@H]1c1nc2ccccc2s1 [Example 1692, (R)-azetidin-1-yl(4-(benzo[d]thiazol-2-yl)-6,7-dihydro-1H-imidazo[4,5-c]pyridin-5(4H)-yl)methanone]",1000 to 5000

# Same assay, conditions: A375 cells expressing human R408W PAH; 24 hrs with compound; 13C-Tyrosine by LC-MS; average where tested multiple times
row,SMILES,AC50
1,CN(C)Cc1nc(C(F)(F)F)c(C(=O)N2CCc3[nH]cnc3C2c2nc3ccccc3s2)o1 (stereo not shown),"E, E"

# Same assay, conditions: A375 cells expressing human R408W PAH; 24 hrs with compound; 13C-Tyrosine by LC-MS; average where tested multiple times; read-out: AC50
row,SMILES,AC50 [nM]
1,O=C(c1cnc(C2CCC(F)(F)CC2)s1)N1CCc2[nH]cnc2C1c1nc2ccccc2s1 (stereo not shown),500 to 1000
2,O=C(c1oc(-c2ccccn2)nc1-c1ccccc1)N1CCc2[nH]cnc2C1c1nc2ccccc2s1 (stereo not shown),1000 to 5000
3,O=C(c1cnn2cc(Br)ccc12)N1CCc2[nH]cnc2C1c1nc2ccc(Br)cc2[nH]1 (stereo not shown),1000 to 5000
4,O=C(c1cnn(CCO)c1Cl)N1CCc2[nH]cnc2C1c1nc2c(F)cccc2s1 (stereo not shown),1000 to 5000
5,O=C(c1nccs1)N1CCc2[nH]cnc2C1c1nc2c(Br)cccc2s1 (stereo not shown),1000 to 5000
6,Cn1nnc(C(=O)N2CCc3[nH]cnc3C2c2nc3c(F)cccc3s2)n1 (stereo not shown),1000 to 5000
7,O=C(Cc1nc(C(F)(F)F)cs1)N1CCc2[nH]cnc2C1c1nc2ccc(F)cc2s1 (stereo not shown),1000 to 5000
